Tests used:
3×Tg mice = assay: Morris-water maze; assay type: in vivo
Experimental: Homozygous 3×Tg mice (APP KM670/671NL (Swedish), MAPT P301L, PSEN1 M146V) were produced in Hong Kong Baptist University animal house and maintained at 23±2° C. temperature, 60±15% relative humidity with free access to food and water ad libitum. Seven months old WT (129/SvJ, n=6 for male mice; n=10 for female mice) and 3×Tg mice (n=6 for male mice; n=10 for female mice) were treated daily with vehicle (1% CMC-Na; Sigma-Aldrich, C5678]), curcumin analogue C1 (2.5 mg/kg, 5 mg/kg, 10 mg/kg) or curcumin (50 mg/kg; Sigma-Aldrich, 08511) suspended in 1% CMC-Na by oral gavage for 7 months. 3×Tg mice were treated with the indicated compounds for 7 months and Morris-water maze (MWM) was used to evaluate the spatial learning memory. MWM is a circular water (21±1° C.) container with 1 meter diameter. Animals were pre-quarantined and acclimatized to the experimenting room at least 1 week before the start of the experiment. The experiment was started with one day visual platform trial. Each mouse underwent 4 visible platform trails (each trial 60 seconds) with different platform placement, positioned above the water level. Hidden platform training was conducted after mixing a non-toxic paint in the water. Mice were trained for 6 continuous days, each day composed of different session with 4 hidden platform trials (each trial 60 seconds). Each session was designed with randomized animal introduction pattern into the water maze with unchanged platform position. Each trial was conducted with 30 min inter-trial interval and provided with external cues. To assess the long term spatial memory retrieval a probe trial (60 seconds) was conducted 24 h after the last training session. During probe trial water maze was divided into 4 quadrants. The hidden platform in the target quadrant was removed after determining its location. Ethnovision XT software was used to observe and record the swimming pattern. During hidden platform training sessions, time spent to find the platform was taken as a parameter to evaluate memory acquisition. In probe trial percentage of time spent in the target quadrant compared to the other 3 quadrants was calculated.

Aβ plaques = assay: Immunohistochemistry of Aβ plaques (4G8 antibody), 5×FAD mice; assay type: in vivo
Experimental: Male 5×FAD mice were purchased from Jackson laboratories (Stock number 006554) and maintained at 23±2° C. temperature, 60±15% relative humidity with free access to food and water ad libitum. 5×FAD male mice were inbred with wild-type (WT, C57/BL6) female mice to produce heterozygous offspring. Offspring were genotyped to select 5×FAD (APP KM670/671NL (Swedish), APP I716V (Florida), APP V717I (London), PSEN1 M146L (A>C), PSEN1 L286V) gene mutations mice. Two months old WT and 5×FAD mice (male and female, n=10-14 per group) were treated daily with vehicle (1% sodium carbonyl methylcellulose [CMC-Na; Sigma-Aldrich, C5678]), curcumin analogue C1 (5 mg/kg, 10 mg/kg) or curcumin (50 mg/kg; Sigma-Aldrich, 08511) suspended in 1% CMC-Na by oral gavage for 4 months.
Mice half brains were fixed with 4% paraformaldehyde in PBS overnight and dehydrated in 30% sucrose in PBS for at least 24 h. Brain sections (30 μm) were cut on a microtome and stored at 4° C. in PBS+0.1% sodium azide. Sections were permeabilized for 10 min with cold PBS containing 0.5% Triton X-100 and blocked with 3% bovine serum albumin for 1 h at room temperature. The sections were incubated with biotinylated 4G8 antibody (800701, Biolegend) overnight, and then incubated with Avidin-Biotin enzyme complex (Vecstatin-ELITE ABC-HRP kit) and Aβ plaques were visualized by DAB peroxidase and quantified using ImageJ software.

For `COc1ccccc1/C=C/C(=O)/C=C/c1ccccc1OC` [Compound C1, 1,5-bis(2-methoxyphenyl)penta-1,4-dien-3-one], the “percentage of time spent in the target quadrant, probe trial, vs vehicle” value (shortened to “percentage of time spent”) (3×Tg mice; 2.5 mg/kg oral 7 months) was “significantly increased”, the “percentage of time spent” value (3×Tg mice; 5 mg/kg oral 7 months) was “significantly increased” and the “distance traveled to find the hidden platform vs vehicle” value (3×Tg mice; 10 mg/kg oral 7 months) was “significantly reduced”. The “percentage of time spent” value (3×Tg mice; 10 mg/kg oral 7 months) was “significantly increased”, the “target recognition compared with curcumin” value (3×Tg mice; C1 10 mg/kg vs curcumin 50 mg/kg) was “much better improvement in target recognition than curcumin” and the “Aβ plaque load in cortico-hippocampal sections” value (Aβ plaques; high dosage 10 mg/kg oral 4 months) was “significant reduction”. For the same compound, the “Aβ plaque load in cortico-hippocampal sections” value (Aβ plaques; low dosage 5 mg/kg oral 4 months) was “significant reduction”.
